Measured values from patent US11472803B2, “7-substituted 1-aryl-naphthyridine-3-carboxylic acid amides and use thereof” (Bayer Aktiengesellschaft, priority 2016, dated 2022).

Biological target: T1, human M2 receptor (Homo sapiens, UniProt P08172)
T1 construct: expressed in transfected cells; host or cells: CHO-DUKX (CHO-DUKX-M2-GIRK)
T1 sequence (P08172 1-466): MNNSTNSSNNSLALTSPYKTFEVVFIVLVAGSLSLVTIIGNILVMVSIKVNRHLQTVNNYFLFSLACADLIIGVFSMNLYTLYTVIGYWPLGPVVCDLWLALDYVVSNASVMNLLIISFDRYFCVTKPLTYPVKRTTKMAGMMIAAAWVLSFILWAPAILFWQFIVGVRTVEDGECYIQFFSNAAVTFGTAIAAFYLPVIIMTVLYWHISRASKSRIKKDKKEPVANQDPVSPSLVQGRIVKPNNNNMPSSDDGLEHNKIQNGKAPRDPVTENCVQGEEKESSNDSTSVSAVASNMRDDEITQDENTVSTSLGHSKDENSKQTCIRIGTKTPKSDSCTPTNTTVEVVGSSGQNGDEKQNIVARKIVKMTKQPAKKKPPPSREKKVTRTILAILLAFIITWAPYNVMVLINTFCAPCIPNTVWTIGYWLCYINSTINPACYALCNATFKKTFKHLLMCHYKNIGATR
Assay: Functional M2-GIRK1/4 activation test: allosteric potency (EC50) and efficiency at EC20 acetylcholine
Format: cell-based
Settings: CHO-DUKX-M2-GIRK cells; for EC50: voltage-sensitive dye, acetylcholine at EC20, in some cases mean of two or more determinations; for Efficiency / Emax: boosting of the acetylcholine effect at EC20 acetylcholine concentration
From the text: The binding of orthosteric agonists (endogenous ligand: acetylcholine) to the M2 receptor leads to receptor activation or a change in conformation of the receptor in the manner of a shift in equilibrium in favour of the active receptor conformation.
The agonist-induced change in conformation of the M2 receptor results in a Gαi protein activation. […] Under physiological conditions, the result is then a selective efflux of potassium from the cell along the electrochemical gradient. […] The extent of hyperpolarization can therefore be regarded as a measure of the activation of the M2 receptor.
The test cell used is a recombinant CHO-DUKX cell line which has been stably transfected with cDNA coding for the human M2 receptor and with cDNA coding for both GIRK1/4 subunits (CHO-DUKX-M2-GIRK). The transmembrane potential, or the relative changes in the transmembrane potential as a function of substance addition or M2 activation, is determined by means of a voltage-sensitive dye (FLIPR Membrane Potential Assay Kit Blue, Molecular Devices #R8034) and the measurement of cell fluorescence using a proprietary fluorescence imaging instrument.
The sowing medium consisted of MEM alpha medium (supplemented with 5% PCS, 2% Glutamax, no genticin).
For the particular measurement, the medium was removed and the cells were laden with the volt-age-sensitive dye for at least 6 min at room temperature (30 μl of loading buffer per 384-well). This was followed, in a first measurement, by the determination of the fluorescence for the resting transmembrane potential for a period of 5 sec. Thereafter, 10 μl in each case of the test substances diluted in loading buffer were added, followed by a second measurement to determine the transmembrane potential for a period of 50 sec in 1 sec increments. Finally, the cells were admixed with 10 μl of agonist solution (acetylcholine dissolved in loading buffer). Acetylcholine was used at the concentration corresponding to the EC20, which had been determined in a preliminary test. The M2-mediated GIRK1/4 activation or hyperpolarization was then monitored in a third measurement over a period of 60 sec. The EC50 value (degree of allosteric potency of test compound) and the efficiency (measure of the boosting of the acetylcholine effect at an EC20 acetylcholine concentration) were determined with the aid of a 4-parameter logistic function (Hill function).

Structure (SMILES)	EC50 [nM]	Efficiency [%]	Emax [%]
CC[C@H](NC(=O)c1cn(-c2c(F)cc(F)cc2F)c2nc(N3C[C@@H](O)[C@H](O)C3)c(Cl)cc2c1=O)C(F)(F)F [Example 38, 6-chloro-7-[(3R,4R)-3,4-dihydroxypyrrolidin-1-yl]-4-oxo-N-[(2S)-1,1,1-trifluorobutan-2-yl]-1-(2,4,6-trifluorophenyl)-1,4-dihydro-1,8-naphthyridine-3-carboxamide]	10.1	–	100
O=C(N[C@@H](C1CC1)C(F)(F)F)c1cn(-c2c(F)cc(F)cc2F)c2nc(N3C[C@@H](O)CC3=O)c(F)cc2c1=O [Example 59, N-[(1S)-1-Cyclopropyl-2,2,2-trifluoroethyl]-6-fluoro-7-[(4S)-4-hydroxy-2-oxopyrrolidin-1-yl]-4-oxo-1-(2,4,6-trifluorophenyl)-1,4-dihydro-1,8-naphthyridine-3-carboxamide]	91.5	–	97
CCC(C)(C)NC(=O)c1cn(-c2c(F)cc(F)cc2Cl)c2nc(N3C[C@@H](O)[C@H](O)C3)c(F)cc2c1=O [Example 73, 1-(2-Chloro-4,6-difluorophenyl)-7-[(3R,4R)-3,4-dihydroxypyrrolidin-1-yl]-6-fluoro-N-(2-methylbutan-2-yl)-4-oxo-1,4-dihydro-1,8-naphthyridine-3-carboxamide]	2.7	–	94
COC[C@@H](NC(=O)c1cn(-c2c(F)cc(F)cc2F)c2nc(N3C[C@@H](O)[C@@H](O)C3)c(F)cc2c1=O)C(C)C [Example 102, 7-[(3R,4S)-3,4-Dihydroxypyrrolidin-1-yl]-6-fluoro-N-[(2S)-1-methoxy-3-methylbutan-2-yl]-4-oxo-1-(2,4,6-trifluorophenyl)-1,4-dihydro-1,8-naphthyridine-3-carboxamide]	295	–	92
C[C@H](NC(=O)c1cn(-c2c(F)cc(F)cc2Cl)c2nc(N3C[C@@H](O)[C@H](O)C3)c(F)cc2c1=O)C1CC1 [Example 43, 1-(2-chloro-4,6-difluorophenyl)-N-[(1S)-1-cyclopropylethyl]-7-[(3R,4R)-3,4-dihydroxypyrrolidin-1-yl]-6-fluoro-4-oxo-1,4-dihydro-1,8-naphthyridine-3-carboxamide]	7.5	–	100
CC(C)[C@H](C)NC(=O)c1cn(-c2c(F)cc(F)cc2F)c2nc(N3C[C@@H](O)[C@@H](O)C3)c(F)cc2c1=O [Example 100, 7-[(3R,4S)-3,4-Dihydroxypyrrolidin-1-yl]-6-fluoro-N-[(2S)-3-methylbutan-2-yl]-4-oxo-1-(2,4,6-trifluorophenyl)-1,4-dihydro-1,8-naphthyridine-3-carboxamide]	31.5	–	100
O=C(NC(C1CC1)C1CC1)c1cn(-c2c(F)cc(F)cc2F)c2nc(N3C[C@@H](O)[C@H](O)C3)c(F)cc2c1=O [Example 21, N-(dicyclopropylmethyl)-7-[(3R,4R)-3,4-dihydroxypyrrolidin-1-yl]-6-fluoro-4-oxo-1-(2,4,6-trifluorophenyl)-1,4-dihydro-1,8-naphthyridine-3-carboxamide]	3	–	100
CC[C@H](NC(=O)c1cn(-c2c(F)cc(F)cc2F)c2nc(N3C[C@@H](O)[C@H](OC(C)=O)C3)c(F)cc2c1=O)C(F)(F)F [Example 35, (3R,4R)-1-[3-Fluoro-5-oxo-6-{[(2S)-1,1,1-trifluorobutan-2-yl]carbamoyl}-8-(2,4,6-trifluoro-phenyl)-5,8-dihydro-1,8-naphthyridin-2-yl]-4-hydroxypyrrolidin-3-yl acetate]	2.9	–	100
CCC(NC(=O)c1cn(-c2c(F)cc(F)cc2F)c2nc(N3C[C@@H](O)[C@@H](O)C3)c(F)cc2c1=O)C(C)C (stereo partly drawn) [Example 106, 7-[(3R,4S)-3,4-Dihydroxypyrrolidin-1-yl]-6-fluoro-V-[2-methylpentan-3-yl]-6-fluoro-4-oxo-1-(2,4,6-trifluorophenyl)-1,4-dihydro-1,8-naphthyridine-3-carboxamide]	7.2	100	–

Other lines, results leading:

EC50 [nM]	Efficiency [%]	Emax [%]	Structure (SMILES)
10	100	–	O=C(NC(C1CC1)C(F)(F)C(F)(F)F)c1cn(-c2c(F)cc(F)cc2F)c2nc(N3CC4(COC4)C3)c(F)cc2c1=O (single isomer, unassigned) [Example 206, N-[1-cyclopropyl-2,2,3,3,3-pentafluoropropyl]-6-fluoro-7-(2-oxa-6-azaspiro[3.3]hept-6-yl)-4-oxo-1-(2,4,6-trifluorophenyl)-1,4-dihydro-1,8-naphthyridine-3-carboxamide]
2.3	–	100	CC(C)C(COC(F)(F)F)NC(=O)c1cn(-c2c(F)cc(F)cc2F)c2nc(N3C[C@@H](O)[C@H](O)C3)c(F)cc2c1=O (mixture of isomers) [Example 233, 7-[(3R,4R)-3,4-dihydroxypyrrolidin-1-yl]-6-fluoro-N-[3-methyl-1-(trifluoromethoxy)butan-2-yl]-4-oxo-1-(2,4,6-trifluorophenyl)-1,4-dihydro-1,8-naphthyridine-3-carboxamide]
39	–	99	CC(C)(NC(=O)c1cn(-c2c(F)cc(F)cc2Cl)c2nc(N3C[C@@H](O)[C@H](O)C3)c(F)cc2c1=O)C(F)F (single isomer, unassigned) [Example 142]
110	–	82	C[C@H](NC(=O)c1cn(-c2c(F)cc(F)cc2Cl)c2nc(N3C[C@@H](O)[C@H](O)C3)c(F)cc2c1=O)C(F)(F)F (single isomer, unassigned) [Example 225]
125	–	100	COC[C@H](NC(=O)c1cn(-c2c(F)cc(F)cc2F)c2nc(N3CC[C@H](O)C3)c(F)cc2c1=O)C(C)C [Example 121, 6-Fluoro-7-[(3S)-3-hydroxypyrrolidin-1-yl]-N-[(2R)-1-methoxy-3-methylbutan-2-yl]-4-oxo-1-(2,4,6-trifluorophenyl)-1,4-dihydro-1,8-naphthyridine-3-carboxamide]
17	–	99	CC[C@H](NC(=O)c1cn(-c2c(F)cc(F)cc2F)c2nc(N3C[C@H](O)[C@@H](O)C3)c(F)cc2c1=O)C(F)(F)F [Example 178, 7-[(3S,4S)-3,4-Dihydroxypyrrolidin-1-yl]-6-fluoro-4-oxo-N-[(2S)-1,1,1-trifluorobutan-2-yl]-1-(2,4,6-trifluorophenyl)-1,4-dihydro-1,8-naphthyridine-3-carboxamide]
97	–	100	CC(C)(NC(=O)c1cn(-c2ncc(F)cc2F)c2nc(N3CC[C@H](O)C3)c(F)cc2c1=O)C(F)(F)F [Example 154, 1-(3,5-Difluoropyridin-2-yl)-6-fluoro-7-[(3S)-3-hydroxypyrrolidin-1-yl]-4-oxo-N-(1,1,1-tri-fluoro-2-methylpropan-2-yl)-1,4-dihydro-1,8-naphthyridine-3-carboxamide]
3.55	–	92	CC(C)(CC(F)(F)F)NC(=O)c1cn(-c2c(F)cc(F)cc2F)c2nc(N3CC[C@H](O)C3)c(F)cc2c1=O [Example 107, 6-Fluoro-7-[(3S)-3-hydroxypyrrolidin-1-yl]-4-oxo-N-(4,4,4-trifluoro-2-methylbutan-2-yl)-1-(2,4,6-trifluorophenyl)-1,4-dihydro-1,8-naphthyridine-3-carboxamide]
6.9	–	99	CCC(NC(=O)c1cn(-c2c(F)cc(F)cc2F)c2nc(N3CC[C@H](O)C3)c(F)cc2c1=O)C(C)C (single isomer, unassigned) [Example 117]
4	–	86	CC(NC(=O)c1cn(-c2c(F)cc(F)cc2F)c2nc(N3CC(CO)(CO)C3)c(F)cc2c1=O)C(F)(F)C(F)(F)F (racemic) [Example 168, 7-[3,3-Bis(hydroxymethyl)azetidin-1-yl]-6-fluoro-4-oxo-N-[3,3,4,4,4-pentafluorobutan-2-yl]-1-(2,4,6-trifluorophenyl)-1,4-dihydro-1,8-naphthyridine-3-carboxamide]
